From PubChem BioAssay AID1963848 (Molecular Pharmacology Branch, DTP, NCI, 2024)
Values joined by “and” are separate entries in the source; they are usually repeats but may differ in a detail not shown here. Identical values can stand only once.

System: 379773-124-R-J2-PDC spheroid viability
Assay: Anticancer human tumor 379773-124-R-J2-PDC patient-derived endometrial carcinoma cell line growth inhibition [POLQ]
Conditions: spheroids with HUVEC and MSC; for viability, T/C: stronger effect = lower value
Procedure: Multicellular complex tumor spheroid response to Polymerase (POL) inhibitors (novobiocin, ART-558, RP6685) in combination with a variety of drugs and investigational agents in selected tumor cell lines
The POL inhibitors (novobiocin, ART-558, and RP6685) were evaluated both individually and in combination with standard of care and investigational anticancer small molecules within a complex spheroid model of solid tumors. . Complex spheroids include a stromal component modeled by human endothelial cells (HUVEC) and fibroblasts modeled by human mesenchymal stem cells (MSCs). The concentration ranges selected for each drug and investigational agent were based upon clinically achievable concentrations if the clinical Cmax of the agent was known.
Compounds. The drugs and investigational agents: novobiocin (NSC847541), ART-558 (NSC835418), RP-6685 (NSC848927), peposertib (NSC802822), ceralasertib (NSC780249), elimusertib (NSC800525), camonsertib (NSC841442), AZD-1390 (NSC803789), olaparib (NSC753686), talazoparib (NSC767125), rucaparib (NSC756644), sotorasib (NSC818433), MRTX-1133 (NSC836407), SN-38 (NSC673596), topotecan (NSC609699), epotoside (NSC141540), doxorubicin (NSC123127), gemcitabine (NSC613327), 5-fluorouracil (NSC19893), paclitaxel (NSC125973), vemurafenib (NSC761431), MSA-2 (NSC828583), SN-011 (NSC837082), adavosertib (NSC754352), prexasertib (NSC758257), carboplatin (NSC241240) and oxaliplatin (NSC266046), were obtained from the National Cancer Institute (NCI) Developmental Therapeutics Program Chemical Repository (21). The FDA-approved anticancer drug set is available from the Developmental Therapeutics Program at https://dtp.cancer.gov/organization/dscb/obtaining/. […] The stock solutions were prepared in dimethyl sulfoxide (DMSO, Sigma-Aldrich, St. Louis, MO, cat. D2650), except for the platinum compounds which were prepared in saline (Quality Biological, Gaithersburg, MD, cat. 114-055-101), at 800-fold the tested concentration and stored at -70 degrees C prior to their use. All drugs and investigational agents were tested over a range starting from a high concentration at or near the clinical Cmax and decreasing in half-log increments. If the clinical Cmax for an agent had not been determined, the highest concentration tested was 10 microM, except for SN-38, which was tested at a high concentration of 1 microM.
Cell Culture. All cells were maintained in an incubator at 37 degrees C and 5% CO2 with 95% humidity. The PDC lines were cultured according to standard operating procedures established by the NCI PDMR (https://pdmr.cancer.gov). Table 3 of the manuscript, lists the cell lines along with the number of the three cell types plated to form the mct-spheroids and media for tumor cell growth. After thawing, all PDC lines, except 997537-175-T-J1-PDC and 415267-285-R-J2-PDC, were cultured in Matrigel-coated flasks prepared with a working solution of 1X Ham's F-12 nutrient mix, without supplementation (Thermo Fisher Scientific, cat. 11765054), 100 U/mL penicillin-streptomycin (Thermo Fisher Scientific, cat. 15140122), and 2.5% Matrigel (Corning Inc., Corning, NY, cat. 354248) for the first three passages. The two PDC lines 997537-175-T-J1-PDC and 415267-285-R-J2-PDC were cultured on uncoated flasks. The 857933-349-R-J2-PDC line was cultured in 6C/Colon 1B media containing advanced DMEM/F-12 (Thermo Fisher Scientific, cat. 12634028), 10 mM HEPES (Thermo Fisher Scientific, cat. 15630080), 1X GlutaMAX supplement (Thermo Fisher Scientific, cat. 35050061), 0.1 mg/mL primocin (InvivoGen, San Diego, CA, cat. ant-pm-2), 10% defined fetal bovine serum, heat inactivated (HyClone Laboratories Inc., Logan, UT, cat. SH30070.03HI), 50% L-WRN conditioned media (ATCC, cat. CRL-3276), 1.25 mM N-Acetyl-L-cysteine (Sigma-Aldrich, cat. A9165), 10 mM nicotinamide (Sigma-Aldrich, cat. N0636), 1X B-27 supplement (Thermo Fisher Scientific, cat. 17504044), 1X N-2 supplement (Thermo Fisher Scientific, cat. […]
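Also: spheroids exposed to drugs for seven days before readout.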
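For viability, T/C in this document: percent viability relative to DMSO vehicle control taken as 100%.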

CC(C)n1c(=O)n(C)c2cnc3cc(F)c(-c4ccc(OCCCN5CCCCC5)nc4)cc3c21 + COC1C(OC(N)=O)C(O)C(Oc2ccc3c(O)c(NC(=O)c4ccc(O)c(CC=C(C)C)c4)c(=O)oc3c2C)OC1(C)C
IC50 (curve of first compound, second compound 0.0316 µM): > 10 µM | IC50 (curve of first compound, second compound 0.1 µM): > 10 µM | IC50 (curve of first compound, second compound 0.316 µM): > 10 µM | IC50 (curve of first compound, second compound 1 µM): > 10 µM | IC50 (curve of first compound, second compound 3.16 µM): > 10 µM | IC50 (curve of first compound, second compound 10 µM): > 10 µM | viability, T/C (second compound 0.0316 µM, first compound 0.0316 µM): 92.3% | viability, T/C (second compound 0.0316 µM, first compound 0.1 µM): 74% | viability, T/C (second compound 0.0316 µM, first compound 0.316 µM): 86.2% | viability, T/C (second compound 0.0316 µM, first compound 1 µM): 75.7% | viability, T/C (second compound 0.0316 µM, first compound 3.16 µM): 67.5% | viability, T/C (second compound 0.0316 µM, first compound 10 µM): 56.5% | viability, T/C (second compound 0.1 µM, first compound 0.0316 µM): 85.2% | viability, T/C (second compound 0.1 µM, first compound 0.1 µM): 87.4% | viability, T/C (second compound 0.1 µM, first compound 0.316 µM): 87.5% | viability, T/C (second compound 0.1 µM, first compound 1 µM): 76.6% | viability, T/C (second compound 0.1 µM, first compound 3.16 µM): 64.3% | viability, T/C (second compound 0.1 µM, first compound 10 µM): 68.4% | viability, T/C (second compound 0.316 µM, first compound 0.0316 µM): 99.1% | viability, T/C (second compound 0.316 µM, first compound 0.1 µM): 81.2% | viability, T/C (second compound 0.316 µM, first compound 0.316 µM): 84% | viability, T/C (second compound 0.316 µM, first compound 1 µM): 75.3% | viability, T/C (second compound 0.316 µM, first compound 3.16 µM): 67.5% | viability, T/C (second compound 0.316 µM, first compound 10 µM): 60.5% | viability, T/C (second compound 1 µM, first compound 0.0316 µM): 85.5% | viability, T/C (second compound 1 µM, first compound 0.1 µM): 81.2% | viability, T/C (second compound 1 µM, first compound 0.316 µM): 77.4% | viability, T/C (second compound 1 µM, first compound 1 µM): 71.7% | viability, T/C (second compound 1 µM, first compound 3.16 µM): 69.8% | viability, T/C (second compound 1 µM, first compound 10 µM): 75.7% | viability, T/C (second compound 3.16 µM, first compound 0.0316 µM): 78% | viability, T/C (second compound 3.16 µM, first compound 0.1 µM): 81.7% | viability, T/C (second compound 3.16 µM, first compound 0.316 µM): 77.7% | viability, T/C (second compound 3.16 µM, first compound 1 µM): 68.1% | viability, T/C (second compound 3.16 µM, first compound 3.16 µM): 77.7% | viability, T/C (second compound 3.16 µM, first compound 10 µM): 80.4% | viability, T/C (second compound 10 µM, first compound 0.0316 µM): 80.2% | viability, T/C (second compound 10 µM, first compound 0.1 µM): 74.6% | viability, T/C (second compound 10 µM, first compound 0.316 µM): 79.7% | viability, T/C (second compound 10 µM, first compound 1 µM): 72.2% | viability, T/C (second compound 10 µM, first compound 3.16 µM): 80.7% | viability, T/C (second compound 10 µM, first compound 10 µM): 64.9%

CCc1c2c(nc3ccc(O)cc13)-c1cc3c(c(=O)n1C2)COC(=O)[C@]3(O)CC
viability, T/C (compound 0.00316 µM): 45.6% and 49.3% and 46.8% | viability, T/C (compound 0.01 µM): 11.9% and 17.2% and 7.71% | viability, T/C (compound 0.0316 µM): 6.11% and 11.4% and 5.39% | viability, T/C (compound 0.1 µM): 2.46% and 4.85% and 2.38% | viability, T/C (compound 0.316 µM): 1.23% and 4.28% and 1.04% | viability, T/C (compound 1 µM): 1.89% and 0.95% and 0.4% | IC50 (curve of compound): < 0.00316 µM

O=C(c1cc(Cc2n[nH]c(=O)c3ccccc23)ccc1F)N1CCN(C(=O)C2CC2)CC1
viability, T/C (compound 0.0316 µM): 90.8% and 82.3% and 93.3% | viability, T/C (compound 0.1 µM): 87% and 88.1% and 91.8% | viability, T/C (compound 0.316 µM): 74.1% and 91.5% and 88.4% | viability, T/C (compound 1 µM): 75.1% and 96.4% and 97.2% | viability, T/C (compound 3.16 µM): 86.8% and 84.9% and 86.2% | viability, T/C (compound 10 µM): 44.5% and 34.6% and 49.8% | IC50 (curve of compound): 8.48 µM and 7.08 µM and > 10 µM
